The values below come from PMC3527451, “A Pilot Randomized, Placebo Controlled, Double Blind Phase I Trial of the Novel SIRT1 Activator SRT2104 in Elderly Volunteers” (PLoS ONE, 2012).

The subject of the assay is elderly male and female volunteers. Kind of assay: Modified oral glucose tolerance test (mOGTT). Type of assay: in vivo, human. On the procedure:
The oral glucose tolerance test (OGTT) allows identification and monitoring of individuals with impaired glucose tolerance and to evaluate the pharmacological effects of glucose lowering agents, [21]. A mOGTT was performed at baseline and on day 29 to assess the pharmacodynamic effects of SRT2104 (or placebo) on glucose, insulin and C-peptide levels. On both occasion, after an overnight fast, subjects were asked to drink a standard glucose beverage containing 75 g of glucose. Blood sample were drawn 10 min before and just prior to the subject consuming the beverage. Additional blood samples were drawn at 10, 20, 30, 60, 90, 120 and 180 minutes after the subject had consumed the glucose beverage. Plasma level of glucose, insulin and C-peptide were measured at each time point. The maximum glucose level (Gmax) was determined, and the area under the plasma glucose concentration–time curve (AUCgluc) was calculated using the trapezoidal rule. AUCgluc60 was defined as the area under the curve from 0 to 60 min after glucose ingestion, the period during which plasma glucose concentration increases. The effects of SRT2104 (or placebo) on glucose, insulin and C-peptide levels and relative AUCs were calculated in each subject as the differences between values at baseline (screening) and after 28 daily administrations of the test material.

Structures are written as SMILES.

Take `Cc1nc(-c2cccnc2)sc1C(=O)Nc1ccccc1-c1cn2c(CN3CCOCC3)csc2n1` [SRT2104]: the OGTT responses entry (0.5 or 2.0 g for 28 days) is recorded as “No significant changes”. Besides, the “rise of insulin and C-peptide and peak insulin concentration in OGTT” value (2.0 g/day, day 29 relative to baseline) was “trends to reduced rates in the rise of both insulin and C-peptide and a lower peak insulin concentration”. The “insulin and C-peptide levels and relative AUCs in OGTT” value (baseline vs day 29) was “no statistically significant changes”.
